Like-named read-outs stand apart in the source and are kept apart here.
Key:
[1] = Measurement of pharmacokinetic parameters, ascending single dose 5, 20, 80 mg LCZ696 vs 40 mg Diovan
Experimental: The study employs a two-period, parallel group, ascending single dose (5, 20, 80 mg of LCZ696 and 40 mg Diovan® (marketed formulation of valsartan), placebo controlled design with dose selection based on FDA exploratory-IND guidance. The dosages of LCZ696 are obtained by using the 5 mg and 50 mg tablets as manufactured above and employing for the 20 mg and 80 mg dose multiple tablets of 5 mg and/or 50 mg strength.
To enable comparison of the exposure to valsartan between LCZ696 and Diovan® at different dose levels, valsartan's exposure (AUC) and Cmax values are normalized to the actual amount of anhydrous salt-free- valsartan administered (normalized by mg-equivalent). The AUC0-24 values are calculated as ng·h/ml/mg-equivalent of valsartan, and the geometric means are compared.

[2] = for AUC0-24 for valsartan / Cmax for valsartan / t1/2 for valsartan / tmax for valsartan: healthy volunteers
[3] = Dissolution testing, USP paddle method, pH 6.8 phosphate buffer, 50 rpm; type: physicochemical
Experimental: The term “dissolution” as used herein refers to a process by which a solid substance, here the active ingredients, is dispersed in molecular form in a medium. The dissolution rate of the active ingredients of the pharmaceutical oral fixed dose combination of the invention is defined by the amount of drug substance that goes in solution per unit time under standardized conditions of liquid/solid interface, temperature and solvent composition. The dissolution rate is measured by standard methods known to the person skilled in the art, see the harmonized procedure set forth in the pharmacopeias USP <711> and EP 2.9.3 and JP. For the purposes of this invention, the test is for measuring the dissolution of the individual active ingredients is performed following pharmacopeia USP <711> at pH 6.8 using a paddle stirring element at 50 rpm (rotations per minute) or alternatively at pH 4.5 using a paddle stirring element at 75 rpm as specified. The dissolution medium is preferably a buffer, typically a phosphate buffer, especially one as described in the example “Dissolution Test”.
The tablets of the Examples are tested for their dissolution in 900 ml of pH 6.8 phosphate buffer with paddles at 50 rpm.
The assembly consists of the following: a covered vessel made of glass or other inert, transparent material; a motor, and a paddle formed from a blade and shaft as the stirring element. The vessel is partially immersed in a suitable water bath of any convenient size or placed in a heating jacket. The water bath or heating jacket permits holding the temperature inside the vessels at 37±0.5° during the test and keeping the bath fluid in constant, smooth motion. No part of the assembly, including the environment in which the assembly is placed, contributes significant motion, agitation, or vibration beyond that due to the smoothly rotating stirring element. Apparatus that permits observation of the specimen and stirring element during the test is has the following dimensions and capacities: the height is 160 mm to 210 mm and its inside diameter is 98 mm to 106 mm. Its sides are flanged at the top. A fitted cover may be used to retard evaporation. The shaft is positioned so that its axis is not more than 2 mm at any point from the vertical axis of the vessel and rotates smoothly without significant wobble. The vertical center line of the blade passes through the axis of the shaft so that the bottom of the blade is flush with the bottom of the shaft. The design of the paddle is as shown in USP <711>, FIG. 2. The distance of 25±2 mm between the blade and the inside bottom of the vessel is maintained during the test. The metallic or suitably inert, rigid blade and shaft comprise a single entity. A suitable two-part detachable design may be used provided the assembly remains firmly engaged during the test. The paddle blade and shaft may be coated with a suitable inert coating. The dosage unit is allowed to sink to the bottom of the vessel before rotation of the blade is started. A small, loose piece of nonreactive material such as not more than a few turns of wire helix may be attached to dosage units that would otherwise float. Other validated sinker devices may be used.
1L of a buffered aqueous solution, adjusted to pH 6.8±0.05 (0.05 M Phosphate buffer solution obtained by dissolving 6.805 g of potassium dihydrogen phosphate and 0.896 g of sodium hydroxide in and diluting to 1000 ml with water, and adjusting the pH to 6.80±0.05 using 0.2 M sodium hydroxide or 1 M phosphoric acid; referred hereinafter as “Dissolution Medium”) is placed in the vessel of the apparatus, the apparatus is assembled, the Dissolution Medium is equilibrated to 37±0.5°, and the thermometer is removed. 1 dosage form (e.g. tablet or capsule) is placed on the apparatus, taking care to exclude air bubbles from the surface of the dosage-form unit, and immediately the apparatus is operated at a rate of 50+2 rpm. […]

[4] = Cohort A (5 mg LCZ696; 40 mg Diovan)
[5] = Cohort B (20 mg LCZ696; 40 mg Diovan)
[6] = Cohort C (80 mg LCZ696; 40 mg Diovan)
[7] = Combined Cohorts A-B-C (pooled data)
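Wherever AUC0-24 for valsartan is given: randomized double-blind placebo-controlled parallel-group study with ascending single doses and 14-day daily dosing cohorts, pharmacokinetics measured in healthy volunteers.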
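Wherever Cmax for valsartan is given: randomized double-blind placebo-controlled parallel-group study with ascending single doses and 14-day daily dosing cohorts, pharmacokinetics measured in healthy volunteers.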
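Wherever accumulation of all analytes is given: randomized double-blind placebo-controlled parallel-group study with ascending single doses and 14-day daily dosing cohorts, pharmacokinetics measured in healthy volunteers.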
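Wherever t1/2 for valsartan is given: randomized double-blind placebo-controlled parallel-group study with ascending single doses and 14-day daily dosing cohorts, pharmacokinetics measured in healthy volunteers.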

Which “dose linearity of valsartan exposures” value ([1]; 5, 20, 80 mg LCZ696 single dose) does the source give for `CCCCC(=O)N(Cc1ccc(-c2ccccc2-c2nn[n-]n2)cc1)[C@H](C(=O)[O-])C(C)C.CCOC(=O)[C@H](C)C[C@@H](Cc1ccc(-c2ccccc2)cc1)NC(=O)CCC(=O)[O-].[Na+].[Na+].[Na+]` [LCZ696, trisodium [3-((1S,3R)-1-biphenyl-4-ylmethyl-3-ethoxycarbonyl-1-butylcarbamoyl) propionate-(S)-3′-methyl-2′-(pentanoyl{2″-(tetrazol-5-ylate)biphenyl-4′-ylmethyl}amino)butyrate]hemipentahydrate] here?
Its value is “dose linear”.

And the “AUC0-24, dose-normalized, geometric mean, valsartan” value (“AUC0-24, dose-normalized” for short) [1, 4]?
The value was 364 ng * h/ml/mg-equivalent.

What about the “AUC0-24 ratio LCZ696/Diovan” value [1, 4] of the same compound?
Its value is 1.81.

What about the “AUC0-inf ratio LCZ696/Diovan” value [1, 4] of the same compound?
Its value is 1.81.

And the “AUC0-inf, dose-normalized, geometric mean, valsartan” value (shortened to “AUC0-inf, dose-normalized”) [1, 4]?
The value was 372 ng * h/ml/mg-equivalent.

What about the “Cmax ratio LCZ696/Diovan” value [1, 4] of the same compound?
Its value is 2.09.

And the “Cmax, dose-normalized, geometric mean, valsartan” value (“Cmax, dose-normalized” for short) [1, 4]?
The value was 56 ng/ml/mg-equivalent.

And the “AUC0-24, dose-normalized” value [1, 5]?
The value was 280 ng * h/ml/mg-equivalent.

And the “AUC0-24 ratio LCZ696/Diovan” value [1, 5]?
The value was 1.38.

What about the “AUC0-inf ratio LCZ696/Diovan” value [1, 5] of the same compound?
Its value is 1.38.

What about the “AUC0-inf, dose-normalized” value [1, 5] of the same compound?
Its value is 284 ng * h/ml/mg-equivalent.

What about the “Cmax ratio LCZ696/Diovan” value [1, 5] of the same compound?
The value was 1.69.

What about the “Cmax, dose-normalized” value [1, 5] of the same compound?
Its value is 44 ng/ml/mg-equivalent.

And the “AUC0-24, dose-normalized” value [1, 6]?
The value was 244 ng * h/ml/mg-equivalent.

And the “AUC0-24 ratio LCZ696/Diovan” value [1, 6]?
The value was 1.67.

And the “AUC0-inf ratio LCZ696/Diovan” value [1, 6]?
The value was 1.64.

What about the “AUC0-inf, dose-normalized” value [1, 6] of the same compound?
The value was 245 ng * h/ml/mg-equivalent.

What about the “Cmax ratio LCZ696/Diovan” value [1, 6] of the same compound?
Its value is 2.1.

What about the “Cmax, dose-normalized” value [1, 6] of the same compound?
Its value is 43 ng/ml/mg-equivalent.

And the “AUC0-24, dose-normalized” value [1, 7]?
The value was 292 ng * h/ml/mg-equivalent.

What about the “AUC0-24 ratio LCZ696/Diovan” value [1, 7] of the same compound?
Its value is 1.61.

What about the “AUC0-inf ratio LCZ696/Diovan” value [1, 7] of the same compound?
The value was 1.6.

And the “AUC0-inf, dose-normalized” value [1, 7]?
The value was 296 ng * h/ml/mg-equivalent.

What about the “Cmax ratio LCZ696/Diovan” value [1, 7] of the same compound?
The value was 1.95.

And the “Cmax, dose-normalized” value [1, 7]?
Its value is 47 ng/ml/mg-equivalent.

What about the “tmax of valsartan free acid” value ([1]; oral administration) of the same compound?
The value was 1.8 ± 0.3 h.

And the “enhanced oral bioavailability of valsartan free acid versus Diovan formulation” value ([1]; oral, analyte valsartan free acid, listed as therapeutic agent)?
The value was 1.6 fold.

And the “tmax for valsartan (mean)” value ([1]; single dose, range of cohort means)?
The value was 1.3 to 1.8 h.

What about the “ratio of geometric means for AUC, LCZ696/Diovan” value ([1]; valsartan, dose-equivalent normalized, pooled cohorts) of the same compound?
The value was 161%.

What about the AUC0-24 for valsartan ([2]; 50 mg daily for 14 days) of the same compound?
Its AUC0-24 for valsartan is 6935 ng·h/mL.

And the Cmax for valsartan ([2]; 50 mg daily for 14 days)?
Its Cmax for valsartan is 1233 ng/mL.

What about the t1/2 for valsartan ([2]; 50 mg daily for 14 days) of the same compound?
The t1/2 for valsartan was 15.2 h.

What about the tmax for valsartan ([2]; 50 mg daily for 14 days) of the same compound?
Its tmax for valsartan is 1.6 h.

And the AUC0-24 for valsartan ([2]; 200 mg daily for 14 days)?
Its AUC0-24 for valsartan is 21079 ng·h/mL.

What about the Cmax for valsartan ([2]; 200 mg daily for 14 days) of the same compound?
The Cmax for valsartan was 3990 ng/mL.

And the t1/2 for valsartan ([2]; 200 mg daily for 14 days)?
The t1/2 for valsartan was 22.1 h.

And the tmax for valsartan ([2]; 200 mg daily for 14 days)?
The tmax for valsartan was 1.8 h.

What about the AUC0-24 for valsartan ([2]; 600 mg daily for 14 days) of the same compound?
The AUC0-24 for valsartan was 58876 ng·h/mL.

And the Cmax for valsartan ([2]; 600 mg daily for 14 days)?
The Cmax for valsartan was 8563 ng/mL.

And the t1/2 for valsartan ([2]; 600 mg daily for 14 days)?
Its t1/2 for valsartan is 22.6 h.

What about the tmax for valsartan ([2]; 600 mg daily for 14 days) of the same compound?
The tmax for valsartan was 2.2 h.

What about the AUC0-24 for valsartan ([2]; 900 mg daily for 14 days) of the same compound?
The AUC0-24 for valsartan was 54920 ng·h/mL.

And the Cmax for valsartan ([2]; 900 mg daily for 14 days)?
The Cmax for valsartan was 8960 ng/mL.

And the t1/2 for valsartan ([2]; 900 mg daily for 14 days)?
The t1/2 for valsartan was 15.0 h.

And the tmax for valsartan ([2]; 900 mg daily for 14 days)?
Its tmax for valsartan is 4.9 h.

What about the “accumulation of all analytes” value ([2]; 50-900 mg LCZ696 once daily for 14 days) of the same compound?
Its value is “Minimal accumulation”.

What about the AUC0-24 for valsartan ([2]; single dose 200 mg) of the same compound?
Its AUC0-24 for valsartan is 16970 ng·h/mL.

What about the Cmax for valsartan ([2]; single dose 200 mg) of the same compound?
Its Cmax for valsartan is 3309 ng/mL.

What about the t1/2 for valsartan ([2]; single dose 200 mg) of the same compound?
The t1/2 for valsartan was 11.7 h.

What about the tmax for valsartan ([2]; single dose 200 mg) of the same compound?
Its tmax for valsartan is 1.7 h.

What about the AUC0-24 for valsartan ([2]; single dose 600 mg) of the same compound?
The AUC0-24 for valsartan was 40645 ng·h/mL.

What about the Cmax for valsartan ([2]; single dose 600 mg) of the same compound?
The Cmax for valsartan was 7269 ng/mL.

And the t1/2 for valsartan ([2]; single dose 600 mg)?
The t1/2 for valsartan was 16.6 h.

And the tmax for valsartan ([2]; single dose 600 mg)?
The tmax for valsartan was 1.9 h.

And the AUC0-24 for valsartan ([2]; single dose 900 mg)?
The AUC0-24 for valsartan was 53568 ng·h/mL.

And the Cmax for valsartan ([2]; single dose 900 mg)?
Its Cmax for valsartan is 8374 ng/mL.

And the t1/2 for valsartan ([2]; single dose 900 mg)?
Its t1/2 for valsartan is 14.9 h.

What about the tmax for valsartan ([2]; single dose 900 mg) of the same compound?
The tmax for valsartan was 2.2 h.

And the AUC0-24 for valsartan ([2]; single dose 1200 mg)?
The AUC0-24 for valsartan was 60118 ng·h/mL.

What about the Cmax for valsartan ([2]; single dose 1200 mg) of the same compound?
The Cmax for valsartan was 7448 ng/mL.

And the t1/2 for valsartan ([2]; single dose 1200 mg)?
The t1/2 for valsartan was 8.9 h.

And the tmax for valsartan ([2]; single dose 1200 mg)?
Its tmax for valsartan is 2.2 h.

What about the “mean valsartan free acid released” value ([3]; about 100 mg per unit dosage form, after 10 min) of the same compound?
The value was “about 50%”.

And the “mean valsartan free acid released” value ([3]; about 100 mg per unit dosage form, after 20 min)?
Its value is “about 85%”.

And the “mean valsartan free acid released” value ([3]; about 100 mg per unit dosage form, after 30 min)?
The value was “about 95%”.

What about the “mean valsartan free acid released” value ([3]; about 200 mg per unit dosage form, after 10 min) of the same compound?
Its value is “about 50%”.

And the “mean valsartan free acid released” value ([3]; about 200 mg per unit dosage form, after 20 min)?
Its value is “about 85%”.

What about the “mean valsartan free acid released” value ([3]; about 200 mg per unit dosage form, after 30 min) of the same compound?
Its value is “about 95%”.

What about the “mean valsartan free acid released” value ([3]; about 400 mg per unit dosage form, after 10 min) of the same compound?
The value was “about 40%”.

And the “mean valsartan free acid released” value ([3]; about 400 mg per unit dosage form, after 20 min)?
Its value is “about 70%”.

And the “mean valsartan free acid released” value ([3]; about 400 mg per unit dosage form, after 30 min)?
Its value is “about 90%”.

— patent US20240115536A1, “DUAL-ACTING PHARMACEUTICAL COMPOSITIONS BASED ON SUPERSTRUCTURES OF ANGIOTENSIN RECEPTOR ANTAGONIST/BLOCKER (ARB) AND NEUTRAL ENDOPEPTIDASE (NEP) INHIBITOR” (Novartis AG, priority 2007, published 2024)
